By pKd is commonly meant −log10 of the Kd, conventionally taken in molar units. Broadly, the pIC50 is −log10 of the IC50, conventionally taken in molar units. By inhibition is commonly meant the change of the read-out against control, counted positive when it falls. As usually defined, the IC50 is the concentration needed to halve the response being measured.

From patent US10975068B2, “6-aminopyridin-3-yl thiazoles as modulators of RORγT” (Janssen Pharmaceutica NV, priority 2016, dated 2021) come the findings set out here.

pIC50, pKd: −log10 of the molar value. Where two headings read alike, the source gives them in different places.

For assay [1], the target named is human RORγt ligand binding domain (RORγt LBD) (Homo sapiens (Human), UniProt P51449). Kind of assay: RORγt ThermoFluor® assay (thermal shift binding). The following applies: read-out: ThermoFluor® Assay, Kd. In outline:
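Binding was inferred from thermal stabilisation (ΔTm) of the E. coli-expressed RORγt LBD (0.065 mg/mL), monitored by 1,8-ANS (60 μM) emission at 500 nm during a 1 °C/min ramp. Buffer was Hepes 100 mM pH 7.0 with NaCl, GSH and Tween-20.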
A general note: Differential scanning fluorimetry follows unfolding on heating by fluorescence.

For assay [2], the target named is full-length human RORγt (Homo sapiens (Human), UniProt P51449). Kind of assay: RORγt (full-length human) reporter assay, Conditions B or C. Type of assay: cell-based. The settings on record: for inhibition at 3 µM: at 3 μM compound concentration, read-out: RORγt (FL) Reporter Assay B or C, % inhibition; for RORγt (FL) Reporter Assay B or C, % inhibition (value marked *): marked *: footnote not given. In outline:
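Readout is dual luciferase: firefly (GAL4-driven) normalized to DMSO-only and saturating-reference controls, then to CMV-Renilla. Full-length human RORγt fused to GAL4-DBD was transiently expressed in HEK293T; compound exposure ran overnight (16-20 h) starting 4-6 h after transfection, final FBS 1.3%, DMSO 0.1%.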

Where [3] appears, read: read-out: RORγt (FL) Reporter Assay B or C, IC50.
Setting [4] is: Conditions B or C, read-out: RORγt (FL) Reporter Assay B or C, IC50.

Sequence of full-length human RORγt (P51449 other isoform, or with tags, fused parts or gaps): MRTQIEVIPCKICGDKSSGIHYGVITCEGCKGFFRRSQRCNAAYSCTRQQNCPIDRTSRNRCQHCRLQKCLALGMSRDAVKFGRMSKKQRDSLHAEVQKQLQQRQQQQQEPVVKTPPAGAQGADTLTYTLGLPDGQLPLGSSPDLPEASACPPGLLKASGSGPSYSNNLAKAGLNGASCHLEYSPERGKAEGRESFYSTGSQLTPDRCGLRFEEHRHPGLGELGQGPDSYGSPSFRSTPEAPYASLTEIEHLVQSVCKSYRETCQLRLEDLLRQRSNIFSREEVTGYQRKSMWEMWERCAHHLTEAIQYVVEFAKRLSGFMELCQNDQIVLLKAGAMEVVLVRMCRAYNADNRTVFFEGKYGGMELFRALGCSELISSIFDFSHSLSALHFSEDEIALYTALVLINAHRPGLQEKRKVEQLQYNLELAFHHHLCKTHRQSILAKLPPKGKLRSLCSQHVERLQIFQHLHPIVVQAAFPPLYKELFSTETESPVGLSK
Sequence of human RORγt ligand binding domain (RORγt LBD) (P51449 other isoform, or with tags, fused parts or gaps): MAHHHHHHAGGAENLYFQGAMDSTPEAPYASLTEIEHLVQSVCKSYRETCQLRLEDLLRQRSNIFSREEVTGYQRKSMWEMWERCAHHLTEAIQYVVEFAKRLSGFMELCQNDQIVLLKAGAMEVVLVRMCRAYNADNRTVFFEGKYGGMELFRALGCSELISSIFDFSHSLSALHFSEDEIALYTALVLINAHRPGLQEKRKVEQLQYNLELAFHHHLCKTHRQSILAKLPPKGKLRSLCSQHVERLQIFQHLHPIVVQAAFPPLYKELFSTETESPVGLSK

As for `C[C@H](Nc1cc(C(F)F)c(-c2sc(C(=O)N[C@H]3CCC[C@@H]3O)nc2C(=O)N2C3CCC2CC3)cn1)C(F)(F)F` [Example 293, 4-((1s,4s)-7-Azabicyclo[2.2.1]heptane-7-carbonyl)-5-(4-(difluoromethyl)-6-(((S)-1,1,1-trifluoropropan-2-yl)amino)pyridin-3-yl)-N-((1S,2S)-2-hydroxycyclopentyl)thiazole-2-carboxamide], in assay [1], the pKd was 8.70. In assay [2] (RORγt (FL) Reporter Assay B or C, IC50), this molecule had a pIC50 of 7.89. In addition, in assay [2], the inhibition at 3 µM came to 94%.
As for `C[C@H]1CCCN1C(=O)c1nc(C(=O)NC[C@@H](O)CO)sc1-c1cnc(NC(C)(C)C)cc1C(F)(F)F` [Example 345, 5-[6-(tert-Butylamino)-4-(trifluoromethyl)-3-pyridyl]-N-[(2R)-2,3-dihydroxypropyl]-4-[(2S)-2-methylpyrrolidine-1-carbonyl]thiazole-2-carboxamide], in assay [1], the pKd was 7.80. Moreover, the inhibition at 3 µM in assay [2] was determined as 111%. In addition, the pIC50 in assay [2] (setting [3]) is 7.20.
Consider `C[C@H]1CC(F)(F)CN1C(=O)c1nc(C(=O)NCC(C)(C)O)sc1-c1cnc(NCC2(C(F)(F)F)CC2)cc1C(F)(F)F` [Example 126, (S)-4-(4,4-Difluoro-2-methylpyrrolidine-1-carbonyl)-N-(2-hydroxy-2-methylpropyl)-5-(4-(trifluoromethyl)-6-(((1-(trifluoromethyl)cyclopropyl)methyl)amino)pyridin-3-yl)thiazole-2-carboxamide], for which the pKd in assay [1] was 9.07. In addition, in assay [2] (Conditions B or C), the “RORγt (FL) Reporter Assay B or C, % inhibition (value marked *)” value (“RORγt … % inhibition (value marked *)” for short) is 98* %. The pIC50 in assay [2] (setting [4]) was 7.16.
For `CC[C@H](Nc1cc(C(F)F)c(-c2sc(C(=O)N[C@H]3C[C@@H]3O)nc2C(=O)N2CCC[C@@H]2C)cn1)C(F)(F)F` (relative stereo) [Example 214, 5-(4-(Difluoromethyl)-6-(((S)-1,1,1-trifluorobutan-2-yl)amino)pyridin-3-yl)-N-((1S*,2S*)-2-hydroxycyclopropyl)-4-((S)-2-methylpyrrolidine-1-carbonyl)thiazole-2-carboxamide], in that order: 7.92, 98* % and 7.12.
In the case of `C[C@H]1CC(F)(F)CN1C(=O)c1nc(C(=O)NC2COCC2O)sc1-c1cnc(NC2(C)CCC2)cc1C(F)(F)F` (stereo in doubt) [Example 185, 4-((S)-4,4-Difluoro-2-methylpyrrolidine-1-carbonyl)-N-((3S,4R)-4-hydroxytetrahydrofuran-3-yl)-5-(6-((1-methylcyclobutyl)amino)-4-(trifluoromethyl)pyridine-3-yl)thiazole-2-carboxamide], the negative-log Kd (pKd) in assay [1] was 9.64. Besides, in assay [2] (Conditions B or C), the “RORγt … % inhibition (value marked *)” value is recorded as 101* %. Moreover, the pIC50 in assay [2] (setting [4]) was 7.82.
For `CCC(C)(C)Nc1cc(C(F)(F)F)c(-c2sc(C(=O)NCC(C)(C)O)nc2C(=O)N2CCCC[C@@H]2C)cn1` [Example 108, (S)—N-(2-Hydroxy-2-methylpropyl)-4-(2-methylpiperidine-1-carbonyl)-5-(6-(tert-pentylamino)-4-(trifluoromethyl)pyridin-3-yl)thiazole-2-carboxamide], in that order: 10.15, 104* % and 7.33.
Take `C[C@H]1CCCN1C(=O)c1nc(C(=O)N[C@H](C)C(C)(C)O)sc1-c1cnc(NCC(C)(C)C)cc1C(F)F` [Example 343, 5-[4-(Difluoromethyl)-6-(2,2-dimethylpropylamino)-3-pyridyl]-N-[(1R)-2-hydroxy-1,2-dimethyl-propyl]-4-[(2S)-2-methylpyrrolidine-1-carbonyl]thiazole-2-carboxamide]: the pKd in assay [1] is 8.29. The inhibition at 3 µM in assay [2] turned out to be 98%. For the same molecule, the pIC50 in assay [2] (setting [3]) was 6.51.
For `C[C@H]1CC(F)(F)CN1C(=O)c1nc(C(=O)N[C@H](C)C(C)(C)O)sc1-c1cnc(N[C@@H](C2CC2)C(F)(F)F)cc1C(F)F` [Example 314, 5-(6-(((S)-1-Cyclopropyl-2,2,2-trifluoroethyl)amino)-4-(difluoromethyl)pyridin-3-yl)-4-((S)-4,4-difluoro-2-methylpyrrolidine-1-carbonyl)-N—((R)-3-hydroxy-3-methylbutan-2-yl)thiazole-2-carboxamide], in that order: 8.85, 101% and 7.46.
As to `CCC(C)(C)Nc1cc(C(F)F)c(-c2sc(C(=O)NCC(C)(C)O)nc2C(=O)N2C3CCC2CC3)cn1` [Example 93, 4-((1s,4s)-7-Azabicyclo[2.2.1]heptane-7-carbonyl)-5-(4-(difluoromethyl)-6-(tert-pentylamino)pyridin-3-yl)-N-(2-hydroxy-2-methylpropyl)thiazole-2-carboxamide], the pKd in assay [1] is 8.96. Further, the “RORγt … % inhibition (value marked *)” value in assay [2] (Conditions B or C) is 121* %. Further, the pIC50 in assay [2] (setting [4]) was 8.00.
With `CC[C@H](Nc1cc(C(F)F)c(-c2sc(C(=O)N[C@H](C)C(C)(C)O)nc2C(=O)N2CC(F)(F)C[C@@H]2C)cn1)C(F)(F)F` [Example 245, 4-[(2S)-4,4-Difluoro-2-methyl-pyrrolidine-1-carbonyl]-5-[4-(difluoromethyl)-6-[[(1S)-1-(trifluoromethyl)propyl]amino]-3-pyridyl]-N-[(1R)-2-hydroxy-1,2-dimethyl-propyl]thiazole-2-carboxamide], in assay [1], the pKd was 8.80. Also, the “RORγt … % inhibition (value marked *)” value in assay [2] (Conditions B or C) was 98* %. Besides, the pIC50 in assay [2] (setting [4]) is 7.59.
On to `C[C@H](Nc1cc(C(F)(F)F)c(-c2sc(C(=O)N[C@@H]3COC[C@H]3O)nc2C(=O)N2C3CCC2CC3)cn1)C(F)(F)F` [Example 150, 4-((1s,4s)-7-Azabicyclo[2.2.1]heptane-7-carbonyl)-N-((3R,4S)-4-hydroxytetrahydrofuran-3-yl)-5-(4-(trifluoromethyl)-6-(((1S)-2,2,2-trifluoro-1-methyl-ethyl)amino)-3-pyridyl)thiazole-2-carboxamide], for which the pKd in assay [1] is 8.49. The “RORγt … % inhibition (value marked *)” value in assay [2] (Conditions B or C) is 111* %. In assay [2] (RORγt (FL) Reporter Assay B or C, IC50 (μM), Conditions B or C), this molecule had an IC50 of 0.035 µM.
With `C[C@H]1CCCN1C(=O)c1nc(C(=O)N[C@H]2C[C@@H](O)C2)sc1-c1cnc(NC(C)(C)C)cc1C(F)(F)F` [Example 251, 5-[6-(tert-Butylamino)-4-(trifluoromethyl)-3-pyridyl]-N-((1s,3R)-3-hydroxycyclobutyl)-4-[(2S)-2-methylpyrrolidine-1-carbonyl]thiazole-2-carboxamide], in assay [1], the pKd was 7.68. Further, the inhibition at 3 µM in assay [2] came out at 104%. Also, the pIC50 in assay [2] (setting [3]) was 7.14.
Consider `C[C@H](Nc1cc(C(F)F)c(-c2sc(C(=O)NC3CS(=O)(=O)C3)nc2C(=O)N2CC(F)(F)C[C@@H]2C)cn1)C(F)(F)F` [Example 192, 4-((S)-4,4-Difluoro-2-methylpyrrolidine-1-carbonyl)-5-(4-(difluoromethyl)-6-(((S)-1,1,1-trifluoropropan-2-yl)amino)pyridine-3-yl)-N-(1,1-dioxidothietan-3-yl)thiazole-2-carboxamide], for which the pKd in assay [1] was 8.55. In addition, the “RORγt … % inhibition (value marked *)” value in assay [2] (Conditions B or C) is on record as 101* %. Also, the pIC50 in assay [2] (setting [4]) was 7.43.
Consider `C[C@H](Nc1cc(C(F)F)c(-c2sc(C(=O)N[C@@H]3CC[C@H]3O)nc2C(=O)N2C3CCC2CC3)cn1)C(F)(F)F` (relative stereo) [Example 291, 4-((1s,4s)-7-Azabicyclo[2.2.1]heptane-7-carbonyl)-5-(4-(difluoromethyl)-6-(((S)-1,1,1-trifluoropropan-2-yl)amino)pyridin-3-yl)-N-((1R*,2R*)-2-hydroxycyclobutyl)thiazole-2-carboxamide], for which the pKd in assay [1] is 8.16. Further, in assay [2], the inhibition at 3 µM stood at 113%. Further, the pIC50 in assay [2] (setting [3]) is 6.92.
The matching figures for `C[C@H]1CCCN1C(=O)c1nc(C(=O)NC2CS(=O)(=O)C2)sc1-c1cnc(NC(C)(C)C)cc1C(F)(F)F` [Example 260, 5-[6-(tert-Butylamino)-4-(trifluoromethyl)-3-pyridyl]-N-(1,1-dioxothietan-3-yl)-4-[(2S)-2-methylpyrrolidine-1-carbonyl]thiazole-2-carboxamide]: 9.15, 112% and 7.85.
On to `CC[C@H](Nc1cc(C(F)F)c(-c2sc(C(=O)N[C@H]3COC[C@H]3O)nc2C(=O)N2CCC[C@@H]2C)cn1)C(F)(F)F` (single isomer, unassigned) [Example 165, 5-(4-(Difluoromethyl)-6-(((S)-1,1,1-trifluorobutan-2-yl)amino)pyridin-3-yl)-N-((3S*,4S*)-4-hydroxytetrahydrofuran-3-yl)-4-((S)-2-methylpyrrolidine-1-carbonyl)thiazole-2-carboxamide], for which the pKd in assay [1] is 8.51. For the same molecule, the “RORγt … % inhibition (value marked *)” value in assay [2] (Conditions B or C) was 98* %. In addition, in assay [2] (setting [4]), the pIC50 is 7.40.
Turning to `C[C@H]1CCCN1C(=O)c1nc(C(=O)N[C@H]2C[C@@](C)(O)C2)sc1-c1cnc(NC(C)(C)C)cc1C(F)(F)F` [Example 337, 5-[6-(tert-Butylamino)-4-(trifluoromethyl)-3-pyridyl]-N-(3-hydroxy-3-methyl-cyclobutyl)-4-[(2S)-2-methylpyrrolidine-1-carbonyl]thiazole-2-carboxamide], the pKd in assay [1] is 8.54. Also, the inhibition at 3 µM in assay [2] stood at 105%. For the same molecule, the pIC50 in assay [2] (setting [3]) is 7.89.
